Experimental data published in paper PMC6270917, “Study on the Mechanism of Intestinal Absorption of Epimedins A, B and C in the Caco-2 Cell Model” (Molecules, 2014).
Like-named read-outs stand apart in the source and are kept apart here.

Experiments:
[1] = test system: multidrug resistance proteins (MRPs); assay: Caco-2 transport in the presence of MK571 (MRP inhibitor); assay type: in vitro ADME, human; conditions: 20 μM epimedin, 50 μM MK571
Description: (§1) Meanwhile, verapamil was dissolved in water to 2 mM as well as MK571 and dipyridamole were dissolved in dimethyl sulfoxide (DMSO)-ethanol (v/v = 1/1) to prepare the stock solution (10 mM) when they were used. In addition, testosterone (internal standard) was dissolved in acetonitrile with acetic acid (v/v = 94/6) to 100 µM.
(§2) The transport experiments were performed as described previously. Firstly, the cell monolayers were rinsed thrice with 37 °C HBSS (pH 7.4), and the monolayers were incubated with the buffer for 1 h, then the incubation medium was aspirated. Afterwards, transport from the apical side (AP) to basolateral side (BL): 2.9 mL drug solution were added to the AP side (which was regarded as donor side) and 2.5mL HBSS were added to the BL side (which was regarded as receiver side). Transport from the basolateral side to apical side: 2.9 mL drug solution were added to the BL (donor) side and 2.5 mL HBSS were added to the AP (receiver) side. When the transport inhibitors were used, they were loaded only at the donor side. In the test for each solution, four donor samples (400 μL) and four receiver samples (400 μL) were taken at time intervals of 2, 3, 4, and 5 h after incubation, followed by an immediate replacement with fresh donor solution (400 μL) to the donor side or fresh buffer (400 μL) to the receiver side.
(§3) To each transport sample (400 µL), acetonitrile (100 µL) containing 100 µM of testosterone was added as an internal standard and preservation. The resulting mixture was vortexed for 30 sec and then centrifuged at 15,000 rpm for 15min. The supernatant obtained was determined by ultra-performance liquid chromatography (UPLC) within 24 h. At the end of the transport experiment, the TEER value was remeasured to confirm the integrity of the cell monolayer.
(§4) UPLC was used to determine the concentration of the compounds in the transport samples obtained from the Caco-2 model. The conditions for UPLC analysis of epimedin A, epimedin B, and epimedin C in the presence of inhibitors (verapamil or MK571) were as follows: system, Waters Acquity^TM UPLC with photodiode array detector and Empower software; column, Acquity UPLC BEH C18, 1.7 μm, 2.1 × 50 mm (Waters, Milford, MA, USA); mobile phase A, acetonitrile; mobile phase B, water; gradient, 0 to 0.5 min, 25% A, 0.5 to 1.0 min, 25% to 60% A, 1.0 to 2.5 min, 60% to 80% A, 2.5 to 3 min, 80% to 25% A; flow rate, 0.4 mL/min; wavelength, 270 nm (epimedin A, epimedin B and epimedin C), 283nm (MK571), 278 nm (verapamil) and 245 nm (testosterone); column temperature, 30 °C; and injection volume, 5 μL.
(§5) In the Caco-2 cell model, rate of transport is obtained from amount transported versus time curve using linear regression. […] The rate of drug transport was calculated by linear regression analysis using Microsoft Excel software (Microsoft Corporation, Redmond, WA, USA ). All data were presented as means ± SD. Statistical comparisons were evaluated by ANOVA test using the SPSS 16 software. Results were considered significant at p < 0.05.

[2] = Bidirectional transport (A-B and B-A) across Caco-2 cell monolayers; assay type: in vitro ADME; conditions: human; for efflux ratio at 5 h / efflux ratio at 5 h, 20 µM: Caco-2, pH 7.4; for efflux ratio at 5 h / Papp A→B at 5 h / Papp B→A at 5 h: concentrations of 5–40 μM; for efflux ratio at 5 h: read-out: efflux ratio (PBA/PAB); for Papp A→B at 5 h / Papp B→A at 5 h: Caco-2, HBSS pH 7.4; for Papp A→B at 5 h: A-B direction, read-out: absorptive permeability (PAB); for Papp B→A at 5 h: B-A direction, read-out: secretory permeability (PBA); for efflux ratio at 5 h, 20 µM: 20 μM epimedin, no inhibitor, read-out: efflux ratio (PBA/PAB), control without inhibitor
Description: The Caco-2 TC7 cell line (at passage 30) is generally similar to the wild-type Caco-2 cell line. […] The conditions for Caco-2 cell culture have been described previously. Cells were cultured in a humidified atmosphere of 5% CO2 and 95% air at 37 °C. The culture medium (Dulbecco’s modified Eagle’s medium ) was supplemented with 10% (v/v) fetal bovine serum, 1% nonessential amino acids, 100 U/mL penicillin, and 100 µg/mL streptomycin. When the cell culture reached 80% confluence, it was rinsed with phosphate-buffered saline and split using trypsin. For transport experiments, the cells were seeded on 3 μm porous polycarbonate cell culture Transwell® inserts from Nunc, which has a surface area of 4.2 cm^2 at a density of 100,000 cells/cm^2. The culture media was replaced every other day. The monolayers were ready for experiments from 19 to 21 days after seeding. Transepithelial electrical resistance (TEER) was used to monitor the integrity and tight junction of the Caco-2 cell monolayer.
Epimedin A, epimedin B, and epimedin C were dissolved in dimethyl sulfoxide (DMSO)-ethanol (v/v = 6/4) to prepare the stock solution (8 mM) for each single compound. The above-mentioned solutions were further diluted with HBSS solution (pH = 7.4) to obtain a series of working standard solutions, and the final concentrations of epimedin A, epimedin B, and epimedin C in the transport samples were 5 µM, 10 µM, 20 µM and 40 µM, respectively. Moreover, the final concentrations of the organic solvent of different samples were controlled below 0.5% to ensure the safety to the cells.
as §2, §3
as §4, with “μL. […]” for “μL.”

Caco-2 cells = assay: MTT cell viability assay; assay type: cell-based, human; conditions: for reduction of cell viability rate of Caco-2 cells: 80 μM (highest concentration), 36 h, vs control; for cytotoxicity to the growth of Caco-2 cells: 10-80 μM
Description: Cell viability was measured using the 3-(4, 5-dimethylthiazol-2-yl)-2,5-diphenyltetrazolium bromide (MTT) assay. The Caco-2 cells were seeded in 96-well plates at a density of 2 × 10^3 cells/well in DMEM culture medium and cultured at 37 °C for 24 h. After that, the culture medium was replaced with fresh medium containing epimedins A, B, and C at concentrations ranging from 10 μM to 80 μM. Control groups consist of cells in medium (without epimedins A, B, and C) which are processed identically and incubated simultaneously as treated groups. And then the 96-well plates were incubated for 36 h. Subsequently, 10 μL of 5 mg/mL MTT was added to each well and the plates were incubated for another 4 h. The solutions in each well were then removed followed by dissolving the remained formazan crystals in the cells with 100 μL DMSO. The absorbance was measured at 550 nm using a microplate reader (Thermo Labsystems, Helsinki, Finland). The cell viability of each compound was calculated as the percentage of the absorbance relative to that of negative control.

[3] = target: T1, breast cancer resistance protein (BCRP) (Homo sapiens, UniProt Q9UNQ0); assay: Caco-2 transport in the presence of dipyridamole (BCRP inhibitor); assay type: in vitro ADME; conditions: 20 μM epimedin
T1 construct: endogenous in cells; host or cells: Caco-2 TC7 cell monolayers
T1 sequence (Q9UNQ0 1-655): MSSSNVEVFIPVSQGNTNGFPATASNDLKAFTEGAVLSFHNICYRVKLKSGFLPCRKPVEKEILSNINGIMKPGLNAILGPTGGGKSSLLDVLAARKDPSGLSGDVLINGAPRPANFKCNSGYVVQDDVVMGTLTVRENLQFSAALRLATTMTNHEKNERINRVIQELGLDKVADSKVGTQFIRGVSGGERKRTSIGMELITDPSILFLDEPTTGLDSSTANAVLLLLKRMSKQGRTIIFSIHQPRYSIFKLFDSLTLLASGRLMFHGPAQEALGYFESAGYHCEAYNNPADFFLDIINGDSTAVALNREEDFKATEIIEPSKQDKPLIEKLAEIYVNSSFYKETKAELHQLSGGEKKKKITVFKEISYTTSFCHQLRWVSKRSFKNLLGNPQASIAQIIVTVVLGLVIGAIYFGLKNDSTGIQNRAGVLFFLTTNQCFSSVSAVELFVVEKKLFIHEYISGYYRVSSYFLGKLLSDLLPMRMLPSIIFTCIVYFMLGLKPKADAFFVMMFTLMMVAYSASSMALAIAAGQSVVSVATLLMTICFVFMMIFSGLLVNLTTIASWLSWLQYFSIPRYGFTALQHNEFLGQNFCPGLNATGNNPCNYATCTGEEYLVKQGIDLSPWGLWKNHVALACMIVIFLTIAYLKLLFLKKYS
Description: as §1, §2, §3
While analysis the samples in the presence of another inhibitor (dipyridamole), the conditions were as follows: system and column were the same as before; mobile phase A, 90% acetonitrile, 10%water; mobile phase B, 10% acetonitrile, 90% water containing 0.015% (v/v) formic acid and 0.02% (v/v) triethylamine (pH 3.0); gradient, 0–0.3 min, 95% B, 0.3–2.9 min, 95%–65% B, 3.8 min, 0% B, 3.8–4.5 min, 0%–95% B; flow rate, 0.4 mL/min; wavelength, 270 nm (epimedin A, epimedin B and epimedin C), 285 nm (dipyridamole) and 245 nm (testosterone,); column temperature, 30 °C; and injection volume, 5 μL.
as §5

P-glycoprotein (P-gp) = target: T2, P-glycoprotein (P-gp) (Homo sapiens, UniProt P08183); assay: Caco-2 transport in the presence of verapamil (P-gp inhibitor); assay type: in vitro ADME; conditions: 20 μM epimedin; for efflux ratio at 5 h, 20 µM: human
T2 construct: endogenous in cells; host or cells: Caco-2 TC7 cell monolayers
Description: as §1, §2, §3, §4, §5

Caco-2 cell monolayers = test system: Caco-2 cell monolayers; design: method as in PMID 11145220; conditions: cited from earlier work

T2 sequence (P08183 whole entry): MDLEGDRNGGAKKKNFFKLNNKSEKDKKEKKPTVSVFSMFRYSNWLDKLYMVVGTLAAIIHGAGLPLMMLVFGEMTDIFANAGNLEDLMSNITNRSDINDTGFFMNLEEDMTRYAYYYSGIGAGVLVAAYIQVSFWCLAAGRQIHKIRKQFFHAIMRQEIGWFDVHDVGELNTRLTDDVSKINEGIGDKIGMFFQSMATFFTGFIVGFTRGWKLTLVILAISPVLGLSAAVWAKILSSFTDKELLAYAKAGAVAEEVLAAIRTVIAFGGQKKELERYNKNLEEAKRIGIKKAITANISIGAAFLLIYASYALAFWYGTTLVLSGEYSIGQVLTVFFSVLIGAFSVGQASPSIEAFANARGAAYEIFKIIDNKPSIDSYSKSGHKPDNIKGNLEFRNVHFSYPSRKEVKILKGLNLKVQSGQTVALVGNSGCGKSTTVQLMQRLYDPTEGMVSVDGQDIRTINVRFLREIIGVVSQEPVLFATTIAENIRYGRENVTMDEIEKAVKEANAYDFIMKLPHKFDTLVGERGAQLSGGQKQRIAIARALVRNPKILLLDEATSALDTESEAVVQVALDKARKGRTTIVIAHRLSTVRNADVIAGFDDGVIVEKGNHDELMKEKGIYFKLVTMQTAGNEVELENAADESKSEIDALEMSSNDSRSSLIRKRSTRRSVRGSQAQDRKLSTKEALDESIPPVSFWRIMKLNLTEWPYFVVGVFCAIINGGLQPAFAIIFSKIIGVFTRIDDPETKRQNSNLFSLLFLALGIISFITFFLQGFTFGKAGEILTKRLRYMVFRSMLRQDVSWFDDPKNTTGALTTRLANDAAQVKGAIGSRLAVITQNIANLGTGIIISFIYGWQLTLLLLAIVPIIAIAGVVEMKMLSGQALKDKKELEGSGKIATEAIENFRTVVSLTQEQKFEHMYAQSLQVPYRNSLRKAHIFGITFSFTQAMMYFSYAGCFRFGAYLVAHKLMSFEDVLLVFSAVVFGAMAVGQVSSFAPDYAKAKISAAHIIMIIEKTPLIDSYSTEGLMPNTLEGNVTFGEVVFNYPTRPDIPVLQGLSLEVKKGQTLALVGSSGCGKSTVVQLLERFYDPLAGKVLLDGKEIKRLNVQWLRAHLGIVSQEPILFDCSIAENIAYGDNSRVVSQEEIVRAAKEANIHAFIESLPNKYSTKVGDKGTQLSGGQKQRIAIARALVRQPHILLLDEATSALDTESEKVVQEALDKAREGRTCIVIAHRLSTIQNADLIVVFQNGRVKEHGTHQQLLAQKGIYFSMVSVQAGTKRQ

| Compound | effect on PAB and PBA (transport) [1] | efflux ratio at 5 h [2] | Papp A→B at 5 h [2] | Papp B→A at 5 h [2] | reduction of cell viability rate of Caco-2 cells (Caco-2 cells) | cytotoxicity to the growth of Caco-2 cells (Caco-2 cells) | reduction of PBA ([3]; 50 μM dipyridamole) | reduction of PBA (P-glycoprotein (P-gp); 50 μM verapamil) | reduction of efflux ratio [1] | efflux ratio at 5 h, 20 µM [2] | reduction of efflux ratio ([3]; 50 μM dipyridamole) | permeability of poorly absorbed compound (Caco-2 cell monolayers) | also measured |
| --- | --- | --- | --- | --- | --- | --- | --- | --- | --- | --- | --- | --- | --- |
| COc1ccc(-c2oc3c(CC=C(C)C)c(O[C@@H]4O[C@H](CO)[C@@H](O)[C@H](O)[C@H]4O)cc(O)c3c(=O)c2O[C@@H]2O[C@@H](C)[C@H](O)[C@@H](O)[C@H]2O[C@@H]2O[C@@H](C)[C@H](O)[C@@H](O)[C@H]2O)cc1 [epimedin C] | did not significantly influence | > 2 | 0.42 to 0.72 ×10⁻⁶ cm/s | 1.2 to 2.28 ×10⁻⁶ cm/s | 7% | nontoxic | 27% | 17% | – | – | – | – | increase in absorptive permeability (PAB) ([3]; 50 μM dipyridamole): 43%; fold reduction of efflux ratio at 5 h, 20 µM ([3]; human, Caco-2, pH 7.4, with dipyridamole (concentration not stated for this group), dipyridamole): ~1.95; increase in absorptive permeability (PAB) (P-glycoprotein (P-gp); 50 μM verapamil): 109%; efflux ratio at 5 h, 20 µM (P-glycoprotein (P-gp); Caco-2, pH 7.4, with verapamil (concentration not stated for this group), verapamil, read-out: reduction of efflux ratio): ~2.5 |
| COc1ccc(-c2oc3c(CC=C(C)C)c(OC4O[C@H](CO)[C@@H](O)[C@H](O)[C@H]4O)cc(O)c3c(=O)c2OC2O[C@@H](C)[C@H](O)[C@@H](O)[C@H]2O[C@@H]2O[C@H](CO)[C@@H](O)[C@H](O)[C@H]2O)cc1 (stereo partly drawn) [epimedin A] | did not alter | > 2 | 0.42 to 0.72 ×10⁻⁶ cm/s | 1.29 to 1.89 ×10⁻⁶ cm/s | 7% | nontoxic | 38% | 22% | 13% | 2.04 | 47% | – | increase of PAB ([3]; 50 μM dipyridamole): 1.2 fold; PAB relative to control group (P-glycoprotein (P-gp); 50 μM verapamil): 1.5 fold; efflux ratio at 5 h, 20 µM (P-glycoprotein (P-gp); Caco-2, pH 7.4, with verapamil 50 µM, 50 μM verapamil, read-out: efflux ratio in the presence of verapamil): 1.03 |
| COc1ccc(-c2oc3c(CC=C(C)C)c(O[C@@H]4O[C@H](CO)[C@@H](O)[C@H](O)[C@H]4O)cc(O)c3c(=O)c2O[C@@H]2O[C@@H](C)[C@H](O)[C@@H](O)[C@H]2O[C@@H]2OC[C@@H](O)[C@H](O)[C@H]2O)cc1 [epimedin B] | increased | > 2 | 0.39 to 0.73 ×10⁻⁶ cm/s | 1.19 to 1.76 ×10⁻⁶ cm/s | 7% | nontoxic | – | – | 32% | 1.98 | 50% | – | effect on absorptive permeability ([3]; 50 μM dipyridamole): increased significantly; effect on secretory permeability ([3]; 50 μM dipyridamole): significantly decreased; efflux ratio at 5 h, 20 µM ([3]; human, Caco-2, pH 7.4, with dipyridamole 50 µM, 50 μM dipyridamole): 1.02; effect on PAB and PBA (P-glycoprotein (P-gp); verapamil): increased; reduction of efflux ratio (P-glycoprotein (P-gp); verapamil): 31% |
| O=C(O)c1cc(/N=N/c2ccc(S(=O)(=O)Nc3ccccn3)cc2)ccc1O [sulfasalazine] | – | – | – | – | – | – | – | – | – | – | – | 0.34 × 10^−6 | – |
| OC[C@@H](O)[C@@H](O)[C@H](O)[C@H](O)CO [mannitol] | – | – | – | – | – | – | – | – | – | – | – | 1.7e-06 cm/s | – |
